Here are results for three compounds from US10059655B2, “Lipids and lipid compositions for the delivery of active agents” (priority 2013, dated 2018).

Data set [1] is described as follows: Measurement of mRNA encapsulation in lipid nanoparticles (Quant-iT Ribogreen). The class given is physicochemical. The conditions noted are these: for % encapsulation mRNA Leptin: Leptin mRNA in LNP. In short, it runs like this:
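LNPs were formed by T-junction mixing of ethanolic lipids (cationic lipid:DSPC:cholesterol:PEG lipid 40:10:38:2) with mRNA in citrate pH 5.8–6.0 at N:P 4:1, then dialysed against PBS overnight at 4 °C. RiboGreen fluorescence (ex 480/em 520 nm) was read on samples diluted 400–2,000-fold in TE with or without 0.75% Triton X-100 and quantified against standard curves. Encapsulation % = (Triton − buffer concentration)/Triton concentration.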

The nature of data set [2]: Measurement of siRNA encapsulation (SYBR Gold fluorescence). The conditions noted are these: for % Encap.: FVII siRNA; for % encapsulation siRNA FVII: FVII siRNA in LNP. The class given is physicochemical. The procedure: The lipid nanoparticles (LNPs) were formed by mixing equal volumes of lipids dissolved in alcohol with siRNA dissolved in a citrate buffer by an impinging jet process. The lipid solution contains a cationic lipid compound of the invention, a helper lipid (cholesterol), an optional neutral lipid (DSPC) and a stealth lipid (S010, S024, S027, or S031) at a concentration of 8-16 mg/mL with a target of 12 mg/mL in an alcohol. The siRNA to total lipid ratio is approximately 0.05 (wt/wt). Where a LNP formulation contains four lipid components, the molar ratios of the lipids ranges from 20 to 70 mole percent for the cationic lipid with a target of 40-60, the mole percent of helper lipid ranges from 20 to 70 with a target of 30 to 50, the mole percent of neutral lipid ranges from 0-30, the mole percent of PEG lipid has a range from 1 to 6 with a target of 2 to 5. The concentration of siRNA solution ranges from 0.7 to 1.0 mg/mL with a target of 0.8 to 0.9 mg/mL in a sodium citrate: sodium chloride buffer pH 4-6, with a target of 4.5-5.5. The LNPs are formed by mixing equal volumes of lipid solution in ethanol with siRNA dissolved in a citrate buffer by an impinging jet process through a mixing device with ID ranging from 0.25 to 2.0 mm at a flow rate from 10 to 640 mL/min. The mixed LNP solution is held at room temperature for 0-24 hrs prior to a dilution step. The solution is then concentrated and diafiltered with suitable buffer by ultrafiltration process using membranes with a MW cutoff from 30 to 500 KD. The final product is sterile filtered and stored at 4° C.
SYBR Gold flourescence reagent is used for the determination of siRNA encapsulation in the DLP's. DLP's with and without triton x-100 are used to determine the free siRNA and total siRNA amounts. DLP's samples with and without triton X-100 were excited at 485 nm and flourescence emission is measured at 530 nm. Encapsulation efficiency is calculated based on the following formula: Encapsulation efficiency: [(free siRNA concentration−total siRNA concentration)/(total siRNA concentration)]×100% Encapsulation Data

With `CCCCC/C=C\C/C=C\CCCCCCCC(=O)OCC(COC(=O)CCC(OCCCCCCCC)OCCCCCCCC)COC(=O)OCCCN(CC)CC` (stereo not shown) [Example 13, (9Z,12Z)-3-((4,4-bis(octyloxy)butanoyl)oxy)-2-((((3-(diethylamino)propoxy)carbonyl)oxy)methyl)propyl octadeca-9,12-dienoate], the “% Encap.” value was determined as 98.3% in data set [1] (FLuc mRNA); 97.2% in data set [1] (Gluc mRNA); 96.4% in data set [1] (hFIX mRNA); 95.4% in data set [1] (hLeptin mRNA); 98.5% in data set [1] (mEPO mRNA); 88.1% in data set [2]. Besides, the “% encapsulation mRNA Leptin” value in data set [1] is 90.7%. Further, the “% encapsulation siRNA FVII” value in data set [2] turned out to be 88.1%.
As to `CCCCC/C=C\C/C=C\CCCCCCCC(=O)OCC(COC(=O)CCCCCCC/C=C\C/C=C\CCCCC)COC(=O)C1(C)CCN(C)C1` (stereo not shown) [Example 1, (9Z,9′Z,12Z,12′Z)-2-(((1,3-dimethylpyrrolidine-3-carbonyl)oxy)methyl)propane-1,3-diyl bis(octadeca-9,12-dienoate)], the “% Encap.” value in data set [1] (FLuc mRNA) was 86.8%; in data set [1] (Gluc mRNA) it was 92.3%; in data set [1] (hFIX mRNA) it was 89.5%; in data set [1] (hLeptin mRNA), 96.7%; in data set [1] (mEPO mRNA), 94.7%; in data set [2], 85.1%. Further, the “% encapsulation mRNA Leptin” value in data set [1] worked out at 96.7%. Also, the “% encapsulation siRNA FVII” value in data set [2] was found to be 85.1%.
For `CCCCC/C=C\C/C=C\CCCCCCCC(=O)OCC(COC(=O)CCC(OCCCCCCCC)OCCCCCCCC)COC(=O)OCC1CCCN(CC)C1` (stereo not shown) [Example 15, (9Z,12Z)-3-((4,4-bis(octyloxy)butanoyl)oxy)-2-(((((1-ethylpiperidin-3-yl)methoxy)carbonyl)oxy)methyl)propyl octadeca-9,12-dienoate], the “% Encap.” value in data set [1] (FLuc mRNA) is 98.1%; in data set [1] (Gluc mRNA) it was 98.1%; in data set [1] (hFIX mRNA), 98.4%; in data set [1] (hLeptin mRNA), 97.3%; in data set [1] (mEPO mRNA), 98.3%. Moreover, in data set [1], the “% encapsulation mRNA Leptin” value was 97.3%.
